# Results published in US9505717B2, “Acetic acid ester compound or salt thereof” (Taiho Pharmaceutical Co., Ltd., priority 2012, dated 2016).
# Test system: female SD rats
# Assay: Test Example 1: urethral baseline pressure (intraurethral pressure) in rats after oral administration
# Format: in vivo, rat
# Settings: 3 mg/kg oral, 11-week-old female SD rats, n=8, mean for 30 minutes after 8 hours from administration, Student's t-test vs distilled water group, FIG. 1
# Protocol: The compounds of the present invention and comparative compounds were individually orally administered in an amount of 3 mg/kg to 11-week-old female SD rats (test substance-administration groups, n=8 for each group), and distilled water was orally administered as the control to 11-week-old female SD rats (solvent administration group, n=8). As the comparative compounds, 4-(1-methylpiperidyl) 2,2-diphenyl-2-propoxyacetate (Comparative Example 1), 4-(1-methylpiperidyl) 2,2-diphenyl-2-(propoxy-1,1,2,2,3,3,3-d7)acetate (Comparative Example 2), which is a deuterated compound of Comparative Example 1, and 4-piperidyl 2,2-diphenyl-2-propoxyacetate (Comparative Example 3), synthesized according to Patent Literatures 1 to 3, respectively, were used.
# Seven and a half hours after administration, each rat was anesthetized by intraperitoneal administration of 1.2 g/kg of urethane. Thereafter, the ureters and the area between the urethra and the bladder were ligated, and a vesical fistula catheter and a catheter for measuring intraurethral pressure were inserted and indwelled in the bladder and the urethra. The catheter for measuring intraurethral pressure was inserted from the external urethral orifice. The other end of each catheter was connected to a corresponding pressure transducer branched into two directions via a corresponding three-way stopcock, and the remaining connecting portion of each three-way stopcock was connected to a corresponding syringe set in a continuous injection device. Intravesical pressure and intraurethral pressure were recorded via a polygraph connected with the pressure transducers. […] Physiological saline was injected into the urethra using the micro syringe pump connected to the urethra at 3 mL/hr, and the changes in intraurethral pressure associated with the rhythmic contraction were recorded.
# The mean values of the urethral baseline pressure for the solvent administration group and the test substance-administration groups were calculated, and the results were indicated as mean±SE. […]
row,Compound,urethral baseline pressure (effect versus solvent administration group)
1,"CCCOC(C(=O)OC1CCN(C)CC1)(c1ccccc1)c1ccccc1 [Comparative Example 1, 4-(1-methylpiperidyl) 2,2-diphenyl-2-propoxyacetate]",did not have a significant effect on urethral baseline pressure
2,"CCCOC(C(=O)OC1CCNCC1)(c1ccccc1)c1ccccc1 [Comparative Example 3, 4-piperidyl 2,2-diphenyl-2-propoxyacetate]",did not have a significant effect on urethral baseline pressure
3,"[2H]C([2H])([2H])C([2H])([2H])C([2H])([2H])OC(C(=O)OC1CCN(C)CC1)(c1ccccc1)c1ccccc1 [Comparative Example 2, 4-(1-methylpiperidyl) 2,2-diphenyl-2-(propoxy-1,1,2,2,3,3,3-d7)acetate]",did not have a significant effect on urethral baseline pressure
